Results published in US4843161A, “Platinum-intercalative complexes for the treatment of cancer” (Massachusetts Institute of Technology, priority 1984, dated 1989).

Legend:
[1] = system: L1210/0; assay: antitumor activity in mice implanted intraperitoneally with L1210 (Table II); assay type: in vivo; set-up: Mean: unit not given beside the values; conditions: d 1, 5, 9, 13
Experimental: The optimal dose is 15 mg/kg giving a %ILS of 51% versus control mice implanted with L1210 but not treated with the drug.

[2] = system: L1210/PDD; assay: antitumor activity in mice implanted with a tumor cell line resistant to cisDDP (Table III); assay type: in vivo; conditions: q4d × 4

Question: For `N.N.[Cl][Pt][Cl]` [CisDDP, cis-diamminedichloroplatinum (II)], which ILS ([1]; first L1210/0 group, dose 3) is on record?
Answer: 34%

Question: And the Mean ([1]; first L1210/0 group, dose 3)?
Answer: 11.9

Question: And the ILS ([1]; second L1210/0 group, dose 2.0)?
Answer: 26%

Question: What about the Mean ([1]; second L1210/0 group, dose 2.0) of the same compound?
Answer: 11.6

Question: What about the ILS ([1]; second L1210/0 group, dose 3.0) of the same compound?
Answer: 51%

Question: And the Mean ([1]; second L1210/0 group, dose 3.0)?
Answer: 13.9

Question: And the ILS ([1]; second L1210/0 group, dose 4.5)?
Answer: 113%

Question: What about the Mean ([1]; second L1210/0 group, dose 4.5) of the same compound?
Answer: 19.6

Question: What about the ILS ([2]; dose 2.0) of the same compound?
Answer: 0%

Question: What about the Mean ([2]; dose 2.0) of the same compound?
Answer: 11.0

Question: And the ILS ([2]; dose 3.0)?
Answer: 0%

Question: What about the Mean ([2]; dose 3.0) of the same compound?
Answer: 10.8

Question: What about the ILS ([2]; dose 4.5) of the same compound?
Answer: 0%

Question: And the Mean ([2]; dose 4.5)?
Answer: 11.0
